The values below come from US5968479A, “Diagnostic marker” (Daiichi Pure Chemicals Co., Ltd., priority 1995, dated 1999).

The nature of data set [1]: Water solubility of labeling compounds before (zwitterion type) and after (double salt type) salt formation. The class given is physicochemical. Particulars: for solubility: water, zwitterion type. The procedure:
The above-obtained Compound 17 (100 mg, 0.11 mmol) was dissolved in methanol (2 ml) and the solution was added with a solution of sodium iodide (1 g, 6.7 mmol) in methanol (5 ml). The methanol solution was concentrated to a half of the volume and cooled to 4° C. overnight. The precipitated crystals were collected by filtration. The obtained green crystals were dried in a vacuum desiccator to give Compound 18 (labeling compound of the formula (V), 85 mg, yield 72%). Data of water-solubility and infrared absorption spectrum data (IR) were obtained before the formation of the salt with sodium iodide (zwitterion type) and after the salt formation. The iodide content was determined by the Schoniger method.
Indocyanine green-N-butanoic acid sulfosuccinimide ester (Compound 19) was prepared according to the method of Example 3. Compound 19 (150 mg, 0.17 mmol) was dissolved in methanol (3 ml) and the solution was added with a solution of sodium iodide (1.5 g, 10 mmol) in methanol (8 ml). The methanol was concentrated to a half of the volume and the concentrate was cooled to 4° C. overnight. The precipitated crystals were collected by filtration. The obtained green crystals were dried in a vacuum desiccator to give Compound 20 (labeling compound of the formula (V), 117 mg, yield 66%). Data of water-solubility and infrared absorption spectra data (IR) were obtained before and after the salt formation with sodium iodide. Iodine content was determined by the Schoniger method.
Indocyanine green-N-hexanoic acid sulfosuccinimide ester (Compound 21) was prepared according to the method of Example 3. Compound 21 (100 mg, 0.11 mmol) was dissolved in methanol (2 ml) and the solution was added with a solution of sodium perchlorate (0.3 g, 2.5 mmol) in methanol (20 ml). The methanol was concentrated to a quarter of the volume under reduced pressure and the concentrate was cooled to 4° C. overnight. The precipitated crystals were collected by filtration. The obtained green crystals were dried in a vacuum desiccator to give Compound 22 (labeling compound of the formula (V), 23 mg, yield 21%). Data of water-solubility and IR were obtained before and after the salt formation with sodium perchlorate.

The nature of data set [2]: Fluorescence spectra of labeling compounds. Format: physicochemical. On the procedure: Compound 5 (40 mg, 64 μmol) in DMF (1 ml) was added with N-hydroxysuccinic anhydride (8.8 mg, 76 μmol) and N,N'-dicyclohexylcarbodiimide (DCC, 26.4 mg, 0.128 mmol) and the mixture was allowed to react at 4° C. overnight. Ether (10 ml) was added to the reaction mixture and the resulting residue was washed three times with ether. The solid mass was dissolved in chloroform (400 μl), and the solution was added with 0.1M aqueous hydrochloric acid (200 μl) and stirred. Then, the chloroform layer was separated and washed three times with water. The chloroform solution was concentrated under reduced pressure to obtain Compound 6 as black green solid (a labeling compound of the formula (III)) (38 mg, yield 78.5%). MS (FAB) m/e=720(M^+); Fluorescence spectra: λex =769 nm, λem =820 nm (10% DMSO in water).
Compound 5 (20 mg, 32 μmol) in DMF (1 ml) was added with sodium N-hydroxysuccinic anhydride sulfonate (8.3 mg, 38 μmol) and N,N'-dicyclohexylcarbodiimide (13.2 mg, 64 μmol), and the mixture was allowed to react at 4° C. overnight and then filtered. Ether (10 ml) was added to the filtrate and the resulting residue was washed three times with ether. The solid mass was dissolved in […] (400 μl), and the solution was added with 0.1M aqueous hydrochloric acid (200 μl) and stirred. Then, the chloroform layer was separated and washed three times with water. The chloroform solution was concentrated under reduced pressure to obtain Compound 7 as black green solid (labeling compound of the formula (III), 17 mg, yield 66.4%). MS (FAB) m/e=822 (M^+ Na); Fluorescence spectra λex =769 nm, λem =820 nm (10% DMSO in water).
Compound 5 (20 mg, 32 μmol) in DMF (0.5 ml) was added with N-(2-(N'-maleimide)ethyl)piperazine dihydrochloride (PEM, 4.4 mg, 38 μmol), triethylamine (TEA, 20 μl, 0.146 mmol) and DCC (10.2 mg, 49 μmol), and the mixture was allowed to react at 4° C. overnight. Ether (10 ml) was added to the reaction mixture and the resulting residue was washed three times with ether. The solid mass was dissolved in chloroform (400 μl), and the solution was added with 0.1M aqueous hydrochloric acid (200 μl) and stirred. Then, the chloroform layer was separated and washed three times with water. The chloroform solution was concentrated under reduced pressure to obtain Compound 8 as black green solid (labeling compound of the formula (III), 20 mg, yield 70.5%). MS (FAB) m/e=814(M^+); Fluorescence spectra λex =773 nm, λem =821 nm (10% DMSO in water).
Compound 6 (20 mg, 26.4 μmol) in DMF (0.5 ml) was added with hydrazine monohydrochloride (9.0 mg, 0.131 mmol) and the mixture was allowed to react overnight. The reaction mixture was filtered and the filtrate was concentrated under reduced pressure. The residue was dissolved in chloroform (0.5 ml) and the chloroform solution was washed with water three times. The chloroform layer was concentrated under reduced pressure to obtain Compound 9 as black green solid (16 mg, yield 90.0%). MS (FAB) m/e=637(M^+); Fluorescence spectra: λex =771 nm, λem =820 nm (10% DMSO in water).
Compound 12 (30 mg, 41.8 μmol) in a 50 v/v % aqueous solution of THF (1 ml) was added with sodium N-hydroxysuccinic anhydride-sulfonate (16.8 mg, 77.4 μmol) and N,N'-dicyclohexylcarbodiimide (25.8 mg, 0.125 mmol), and the mixture was allowed to react at 4° C. overnight and then filtered. The filtrate was concentrated under reduced pressure at a temperature of 20° C. or less. The residue was added with ethyl acetate (10 ml) and the deposited crystals were further washed with ether three times. These crystals were dissolved in water (200 μl) and purified using a Sephadex LH20 column (eluent: water) to obtain Compound 13 as black green solid (labeling compound of the formula (III), 34 mg, yield 88.8%). MS (FAB) m/e=892(M^-); Fluorescence spectrum λex =771 nm, λem =822 nm (water). […]

In general, solubility refers to the dissolved amount per volume that the medium holds.

Turning to `CC1(C)C(=CC=CC=CC=CC2=[N+](CCCCS(=O)(=O)[O-])c3ccc4ccccc4c3C2(C)C)N(CCCCCC(=O)ON2C(=O)CC(S(=O)(=O)O)C2=O)c2ccc3ccccc3c21` (stereo not shown) [Compound 22], in data set [1] (double salt type (sodium perchlorate)), the Water solubility is recorded as 1 mg/5 ml.

Regarding `CC[N+]1=C(C=CC=CC=CC=C2N(CCCCCC(=O)NN)c3ccc4ccccc4c3C2(C)C)C(C)(C)c2c1ccc1ccccc21` [Compound 9], in data set [2] (10% DMSO in water), the “Fluorescence spectra λem” value amounted to 820 nm and the “Fluorescence spectra λex” value was determined as 771 nm.

Turning to `CC1(C)C(=CC=CC=CC=CC2=[N+](CCCCS(=O)(=O)[O-])c3ccc4ccccc4c3C2(C)C)N(CCCCCC(=O)ON2C(=O)CC(S(=O)(=O)O)C2=O)c2ccc3ccccc3c21` (stereo not shown) [Compound 17, indocyanine green-N-hexanoic acid sulfosuccinimide ester], in data set [2] (water), the “Fluorescence spectra λem” value amounted to 807 nm and the “Fluorescence spectra λex” value is reported as 768 nm.

As to `CC1(C)C(=CC=CC=CC=CC2=[N+](CCCCS(=O)(=O)[O-])c3ccc4ccccc4c3C2(C)C)N(CCCCCC(=O)ON2C(=O)CC(S(=O)(=O)O)C2=O)c2ccc3ccccc3c21` (stereo not shown) [Compound 18], the Water solubility in data set [1] (double salt type (sodium iodide)) came to 1 mg/0.8 ml.

In the case of `CC1(C)C(=CC=CC=CC=CC2=[N+](CCCCS(=O)(=O)[O-])c3ccc4ccccc4c3C2(C)C)N(CCCCCC(=O)ON2C(=O)CC(S(=O)(=O)O)C2=O)c2ccc3ccccc3c21` (stereo not shown) [Compound 21, Indocyanine green-N-hexanoic acid sulfosuccinimide ester], the solubility in data set [1] was at least 100 µg/mL.

`CC[N+]1=C(C=CC=CC=CC=C2N(CCCCCC(=O)ON3C(=O)CC(S(=O)(=O)O)C3=O)c3ccc4ccccc4c3C2(C)C)C(C)(C)c2c1ccc1ccccc21` (stereo not shown) [Compound 7]: in data set [2] (10% DMSO in water), the “Fluorescence spectra λem” value is 820 nm and the “Fluorescence spectra λex” value is recorded as 769 nm.

Regarding `CC1(C)C(=CC=CC=CC=CC2=[N+](CCCCS(=O)(=O)[O-])c3ccc4ccccc4c3C2(C)C)N(CCCC(=O)ON2C(=O)CC(S(=O)(=O)O)C2=O)c2ccc3ccccc3c21` (stereo not shown) [Compound 19, Indocyanine green-N-butanoic acid sulfosuccinimide ester], the solubility in data set [1] is at least 100 µg/mL.

As for `CC1(C)C(=CC=CC=CC=CC2=[N+](CCCS(=O)(=O)[O-])c3ccc4ccccc4c3C2(C)C)N(CCCCCC(=O)ON2C(=O)CC(S(=O)(=O)O)C2=O)c2ccc3ccccc3c21` (stereo not shown) [Compound 13], in data set [2] (water), the “Fluorescence spectra λem” value amounted to 822 nm and the “Fluorescence spectra λex” value is reported as 771 nm.

For the compound `CC[N+]1=C(C=CC=CC=CC=C2N(CCCCCC(=O)ON3C(=O)CCC3=O)c3ccc4ccccc4c3C2(C)C)C(C)(C)c2c1ccc1ccccc21` [Compound 6], in data set [2] (10% DMSO in water), the “Fluorescence spectra λem” value stood at 820 nm and the “Fluorescence spectra λex” value is 769 nm.

Take `CC[N+]1=C(C=CC=CC=CC=C2N(CCCCCC(=O)N3CCN(CCN4C(=O)C=CC4=O)CC3)c3ccc4ccccc4c3C2(C)C)C(C)(C)c2c1ccc1ccccc21` [Compound 8]: in data set [2] (10% DMSO in water), the “Fluorescence spectra λem” value is recorded as 821 nm and the “Fluorescence spectra λex” value amounted to 773 nm.
